Reference: US20100184699A1, “Peptide Derived From Prostate-Related Protein As Cancer Vaccine Candidate For Prostate Cancer Patient Who Is Positive For Hla-A3 Super-Type Allele Molecule” (priority 2005, published 2010)
“And” between values parts separate entries of the source, which are not always exact repeats. Equal entries are not always repeated. Where two headings read alike, the source gives them in different places.

Key:
[1] = test system: peptide-specific IgG in plasma of prostate cancer patients and healthy donors; assay: Detection of peptide-specific IgG in plasma by ELISA; format: binding, human; settings: for IgG reactive to peptide in plasma: 1:100-diluted plasma
[2] = test system: C1R-A11, -A31 or -A33 cells pulsed with corresponding peptide; assay: Induction of peptide-specific CTLs from PBMCs (IFN-γ ELISA); format: cell-based, human; settings: for IFN-γ production, HIV peptide background subtracted: day 15, significant values only
[3] = Prostate cancer patient 10, A11
[4] = Prostate cancer patient 19, A33
[5] = Prostate cancer patient 12, A11
[6] = Prostate cancer patient 20, A33

SLLKNRFLR (PSA 104-112) [PSA-derived peptide]
IgG reactive to peptide in plasma, Total (positive/tested) ([1]; Healthy donors): 0/9
IgG reactive to peptide in plasma ([1]; Prostate cancer patient 3, A31): + (IgG reactive to a corresponding peptide was judged to be positive when a difference of the optical density (OD) in a 1:100-diluted plasma was more than 100)
IgG reactive to peptide in plasma ([1]; Prostate cancer patient 8, A11): + (IgG reactive to a corresponding peptide was judged to be positive when a difference of the optical density (OD) in a 1:100-diluted plasma was more than 100)
IgG reactive to peptide in plasma ([1]; Prostate cancer patient 9, A11): + (IgG reactive to a corresponding peptide was judged to be positive when a difference of the optical density (OD) in a 1:100-diluted plasma was more than 100)
IgG reactive to peptide in plasma [1, 3]: + (IgG reactive to a corresponding peptide was judged to be positive when a difference of the optical density (OD) in a 1:100-diluted plasma was more than 100)
IgG reactive to peptide in plasma ([1]; Prostate cancer patient 16, A33): + (IgG reactive to a corresponding peptide was judged to be positive when a difference of the optical density (OD) in a 1:100-diluted plasma was more than 100)
IgG reactive to peptide in plasma [1, 4]: + (IgG reactive to a corresponding peptide was judged to be positive when a difference of the optical density (OD) in a 1:100-diluted plasma was more than 100)
IgG reactive to peptide in plasma, Total (positive/tested) ([1]; Prostate cancer patients): 5/20
frequency of detection of peptide-reactive IgG ([1]; plasma of prostate cancer patients, compared within PSA, PAP or PSMA peptides): more frequently
Total (positive / tested) [2]: 3/13 and 1/9

NVKNLYEKVK (Flu-derived peptide) [reference compound]
Total (positive / tested) [2]: 8/13 and 5/9

LLGPGRPYR (TRP2-derived peptide) [reference compound]
IFN-γ production, HIV peptide background subtracted ([2]; healthy donor 1, A31): 143 pg/mL
IFN-γ production, HIV peptide background subtracted ([2]; healthy donor 4, A31): 180 pg/mL
IFN-γ production, HIV peptide background subtracted ([2]; healthy donor 6, A33): 90 pg/mL
IFN-γ production, HIV peptide background subtracted ([2]; healthy donor 9, A11): 182 pg/mL
IFN-γ production, HIV peptide background subtracted ([2]; healthy donor 10, A11): 207 pg/mL
IFN-γ production, HIV peptide background subtracted ([2]; healthy donor 14, A11): 94 pg/mL
Total (positive / tested) ([2]; healthy donors): 6/9
IFN-γ production, HIV peptide background subtracted ([2]; prostate cancer patient 9, A11): 155 pg/mL
IFN-γ production, HIV peptide background subtracted ([2]; prostate cancer patient 15, A33): 292 pg/mL
IFN-γ production, HIV peptide background subtracted ([2]; prostate cancer patient 17, A33): 1093 pg/mL
IFN-γ production, HIV peptide background subtracted ([2]; prostate cancer patient 19, A33): 115 pg/mL
IFN-γ production, HIV peptide background subtracted ([2]; prostate cancer patient 22, A31): 115 pg/mL
Total (positive / tested) ([2]; prostate cancer patients): 5/13

WVLTAAHCIR [PSA 59-68]
IgG reactive to peptide in plasma, Total (positive/tested) ([1]; Healthy donors): 0/9
IgG reactive to peptide in plasma, Total (positive/tested) ([1]; Prostate cancer patients): 0/20

GLPDRPFYR [PSMA 680-688]
IgG reactive to peptide in plasma, Total (positive/tested) ([1]; Healthy donors): 0/9
IgG reactive to peptide in plasma ([1]; Prostate cancer patient 2, A31): + (IgG reactive to a corresponding peptide was judged to be positive when a difference of the optical density (OD) in a 1:100-diluted plasma was more than 100)
IgG reactive to peptide in plasma ([1]; Prostate cancer patient 4, A31): + (IgG reactive to a corresponding peptide was judged to be positive when a difference of the optical density (OD) in a 1:100-diluted plasma was more than 100)
IgG reactive to peptide in plasma ([1]; Prostate cancer patient 6, A31): + (IgG reactive to a corresponding peptide was judged to be positive when a difference of the optical density (OD) in a 1:100-diluted plasma was more than 100)
IgG reactive to peptide in plasma ([1]; Prostate cancer patient 7, A11): + (IgG reactive to a corresponding peptide was judged to be positive when a difference of the optical density (OD) in a 1:100-diluted plasma was more than 100)
IgG reactive to peptide in plasma ([1]; Prostate cancer patient 8, A11): + (IgG reactive to a corresponding peptide was judged to be positive when a difference of the optical density (OD) in a 1:100-diluted plasma was more than 100)
IgG reactive to peptide in plasma ([1]; Prostate cancer patient 9, A11): + (IgG reactive to a corresponding peptide was judged to be positive when a difference of the optical density (OD) in a 1:100-diluted plasma was more than 100)
IgG reactive to peptide in plasma [1, 3]: + (IgG reactive to a corresponding peptide was judged to be positive when a difference of the optical density (OD) in a 1:100-diluted plasma was more than 100)
IgG reactive to peptide in plasma [1, 5]: + (IgG reactive to a corresponding peptide was judged to be positive when a difference of the optical density (OD) in a 1:100-diluted plasma was more than 100)
IgG reactive to peptide in plasma ([1]; Prostate cancer patient 13, A11): + (IgG reactive to a corresponding peptide was judged to be positive when a difference of the optical density (OD) in a 1:100-diluted plasma was more than 100)
IgG reactive to peptide in plasma ([1]; Prostate cancer patient 14, A33): + (IgG reactive to a corresponding peptide was judged to be positive when a difference of the optical density (OD) in a 1:100-diluted plasma was more than 100)
IgG reactive to peptide in plasma [1, 6]: + (IgG reactive to a corresponding peptide was judged to be positive when a difference of the optical density (OD) in a 1:100-diluted plasma was more than 100)
IgG reactive to peptide in plasma, Total (positive/tested) ([1]; Prostate cancer patients): 12/20

FIDPLGLPDR (PSMA 675-684) [PSMA-derived peptide]
IgG reactive to peptide in plasma, Total (positive/tested) ([1]; Healthy donors): 0/9
IgG reactive to peptide in plasma ([1]; Prostate cancer patient 2, A31): + (IgG reactive to a corresponding peptide was judged to be positive when a difference of the optical density (OD) in a 1:100-diluted plasma was more than 100)
IgG reactive to peptide in plasma ([1]; Prostate cancer patient 4, A31): + (IgG reactive to a corresponding peptide was judged to be positive when a difference of the optical density (OD) in a 1:100-diluted plasma was more than 100)
IgG reactive to peptide in plasma ([1]; Prostate cancer patient 5, A31): + (IgG reactive to a corresponding peptide was judged to be positive when a difference of the optical density (OD) in a 1:100-diluted plasma was more than 100)
IgG reactive to peptide in plasma ([1]; Prostate cancer patient 6, A31): + (IgG reactive to a corresponding peptide was judged to be positive when a difference of the optical density (OD) in a 1:100-diluted plasma was more than 100)
IgG reactive to peptide in plasma ([1]; Prostate cancer patient 8, A11): + (IgG reactive to a corresponding peptide was judged to be positive when a difference of the optical density (OD) in a 1:100-diluted plasma was more than 100)
IgG reactive to peptide in plasma ([1]; Prostate cancer patient 9, A11): + (IgG reactive to a corresponding peptide was judged to be positive when a difference of the optical density (OD) in a 1:100-diluted plasma was more than 100)
IgG reactive to peptide in plasma [1, 5]: + (IgG reactive to a corresponding peptide was judged to be positive when a difference of the optical density (OD) in a 1:100-diluted plasma was more than 100)
IgG reactive to peptide in plasma ([1]; Prostate cancer patient 17, A33): + (IgG reactive to a corresponding peptide was judged to be positive when a difference of the optical density (OD) in a 1:100-diluted plasma was more than 100)
IgG reactive to peptide in plasma [1, 4]: + (IgG reactive to a corresponding peptide was judged to be positive when a difference of the optical density (OD) in a 1:100-diluted plasma was more than 100)
IgG reactive to peptide in plasma [1, 6]: + (IgG reactive to a corresponding peptide was judged to be positive when a difference of the optical density (OD) in a 1:100-diluted plasma was more than 100)
IgG reactive to peptide in plasma, Total (positive/tested) ([1]; Prostate cancer patients): 10/20

PSMA 247-265 (NLPGGGVQRGNILNLNGAG; UniProt Q04609 247-265, looked up, fragment)
IgG reactive to peptide in plasma, Total (positive/tested) ([1]; Healthy donors): 0/9
IgG reactive to peptide in plasma ([1]; Prostate cancer patient 6, A31): + (IgG reactive to a corresponding peptide was judged to be positive when a difference of the optical density (OD) in a 1:100-diluted plasma was more than 100)
IgG reactive to peptide in plasma ([1]; Prostate cancer patient 8, A11): + (IgG reactive to a corresponding peptide was judged to be positive when a difference of the optical density (OD) in a 1:100-diluted plasma was more than 100)
IgG reactive to peptide in plasma ([1]; Prostate cancer patient 9, A11): + (IgG reactive to a corresponding peptide was judged to be positive when a difference of the optical density (OD) in a 1:100-diluted plasma was more than 100)
IgG reactive to peptide in plasma [1, 5]: + (IgG reactive to a corresponding peptide was judged to be positive when a difference of the optical density (OD) in a 1:100-diluted plasma was more than 100)
IgG reactive to peptide in plasma [1, 6]: + (IgG reactive to a corresponding peptide was judged to be positive when a difference of the optical density (OD) in a 1:100-diluted plasma was more than 100)
IgG reactive to peptide in plasma, Total (positive/tested) ([1]; Prostate cancer patients): 6/20
